Assay results published in patent US20230125667A1, “NOVEL TDZD ANALOGS AS AGENTS THAT DELAY, PREVENT, OR REVERSE AGE-ASSOCIATED DISEASES AND AS ANTI-CANCER AND ANTILEUKEMIC AGENTS” (United States Government as represented by the Department …, priority 2020, published 2023).
Where two headings read alike, the source gives them in different places.

Tested on: MV4-11 cell line (myelomonocytic leukemia)
Details: MV4-11 cells
[1] = Ibuprofen-TDZD analogs (Table 3)

SMILES	LD50, 7AAD (μM) 24 h (MMB-TDZD analogs (Table 2)) [µM]	LD50, Alamar blue (μM) 24 h (MMB-TDZD analogs (Table 2)) [µM]	LD50, YOPRO (μM) 24 h (MMB-TDZD analogs (Table 2)) [µM]	LD50 (values in text) [nM]	LD50, 7AAD (μM) 24 h [1] [µM]	LD50, Alamar blue (μM) 24 h [1] [µM]	LD50, YOPRO (μM) 24 h [1] [µM]
C=C1C(=O)O[C@H]2[C@H]1CC/C(COC(=O)NCc1ccc(Cn3c(=O)sn(-c4ccc(Cl)cc4)c3=O)cc1)=C\CC[C@@]1(C)O[C@@H]21 [BSK-268]	0.55	0.63	0.68	130			
CC(C)Cc1ccc(C(C)C(=O)NCc2ccc(Cn3c(=O)sn(CCCCl)c3=O)cc2)cc1 (stereo not shown) [BSK-236]					1.75	2.50	1.77
CC(C)Cc1ccc(C(C)C(=O)NCc2ccc(Cn3c(=O)sn(-c4ccccc4)c3=O)cc2)cc1 (stereo not shown) [BSK-239]					4.91	4.70	4.24
CC(C)Cc1ccc(C(C)C(=O)NCc2ccc(Cn3c(=O)sn(-c4ccc(Cl)cc4)c3=O)cc2)cc1 (stereo not shown) [BSK-266]					10.7	12.00	10.6
Cn1sc(=O)n(Cc2ccccc2)c1=O [TDZD-8, 4-benzyl, 2-methyl, 1,2,4-thiadiazolidine, 3,5 dione, reference compound]	3.61	4.5	3.29		3.61	4.5	3.29
C=C1C(=O)O[C@H]2[C@H]1CC/C(COC(=O)NCc1ccc(Cn3c(=O)sn(-c4ccc(C#N)cc4)c3=O)cc1)=C\CC[C@@]1(C)O[C@@H]21 [BSK-263]	0.23	0.75	0.13				
CCCCCn1sc(=O)n(Cc2ccc(CNC(=O)C(C)c3ccc(CC(C)C)cc3)cc2)c1=O (stereo not shown) [BSK-235]					2.54	3.50	3.2
